Test results published in US11116210B2 (priority 2017, dated 2021).

System: Female mosquitoes, Aedes aegypti
Assay: Y-tube olfactometer insect repellency assay
Assay type: in vivo
Set-up: key to Significance (attraction vs Control): NS—not significant; *, ** - significantly different; *, ** - significantly different
Settings: 98%

## CCN(CC)C(=O)c1cccc(C)c1 [DEET, N,N-diethyl-3-methylbenzamide]
  insect repellency, in words: strongest repellency
Vs mineral oil control
  Significance (attraction vs Control): **
